Test results: patent US10618900B2, “5-aromatic alkynyl substituted benzamide compound and preparation method, pharmaceutical composition, and use thereof” (SHANGHAI INSTITUTE OF MATERIA MEDICA, CHINESE ACADEMY OF …, priority 2015, dated 2020)

Legend:
[1] = system: mice; experiment: Mouse tail suspension experiment; type: in vivo; settings: positive control, FIG. 1
Excerpt: Experimental principle: Tail Suspension Test (TST) is a classic method which can quickly evaluate the efficacy of antidepressant drugs, excitement drugs, and sedative drugs. The principle is to use the status that the mouse give up struggle and enter the unique depression status after the tail was suspended and the attempt to escape was failed.
Experimental method: 20-24 g male mice were selected and the site at 2 cm part from the end of the tail was attached to a horizontal stick, so that the animal entered inverted state, and it's head was about 5 cm from the table, and boards were hung on both sides to separate the animal's sight. The immobility time of the administration group and the control group within 6 min were compared.

[2] = system: ICR mice; experiment: Mouse forced swimming experiment; type: in vivo; settings: positive control, 10 mg/kg intraperitoneal, later 4 min of 6 min
Description: Experimental principle: The principle of Mouse Forced Swimming Test (FST) is to allow the mouse to swim in a limited space from which it can not escape, thus inducing animal to non-movement state which reflects the animal's desperate behavior.
Experimental animals: ICR mice, 20-28 g, both male and female
Sample treatment: The test compounds were ground with 1% CMC (sodium carboxymethyl cellulose) aqueous solution to prepare a homogeneous solution. In vivo dose was 5 mg/kg, 10 mg/kg and 20 mg/kg, the compound was oral administered at 0.1 ml/10 g volume/body weight. Positive control drugs (amitriptyline and fluoxetine) were dissolved with 0.9% saline, in vivo dose was 10 mg/kg, administered by intraperitoneal injection at 0.1 ml/10 g volume/body weight. (Note: the mice were fasted for 8 h and drinked water ad libitum before the compound was given.)
Experimental Methods: mice were grouped randomly. […] On the second day of the test, the mice were orally administered the compound. After 1 hour (0.5 hours after intraperitoneal injection), the mice were then put in water to record the immobility time in the later 4 min of 6 min.

[3] = system: mice; experiment: Head twitches test (5-HTP induced); type: in vivo; settings: positive control, FIG. 2
Excerpt: Experimental principle: Model Head Thrust Test (HTT) is first raised by Corne et al. in 1963, head twitches syndrome caused by 5-HT receptor excitement may be mediated through the 5-HT2 receptor. The head twitches behavior induced by 5-HTP in mice is more sensitive to antidepressants with different action mechanisms, such as citalopram, fluvoxamine and other 5-HT retake inhibitors, desipramine, maprotiline, nomifensine and other NA retake inhibitors and imipramine acting on both 5-HT and NA system.
Experimental method: 20-24 g male mice were selected. 3 h before the test, 100 mg/kg pargyline was intraperitoneal injected and then intraperitoneal injected with test drugs or saline. 5-HTP (5 mg/kg, ip) was injected 30 min later. After 10 min, the observation was started and the number of mice head twitches in 6 min was recorded. The numbers of the head twitches of experimental group and the saline control group were compared.

[4] = target: mGluR1 (Homo sapiens (Human), UniProt Q13255); experiment: mGluR5/1 selectivity test, HEK293/mGluR1 cell line, Fluo-8 calcium; type: cell-based; settings: for IC50: HEK293/mGluR1 cell line; for mGluR5/mGluR1: selectivity ratio of IC50 values
Excerpt: Experimental material: HEK293/mGluR5 cell line, HEK293/mGluR1 cell line, Fluo-8 calcium ion fluorescent dye, positive control JNJ16259685

[5] = target: mGluR5 (Homo sapiens (Human), UniProt P41594); experiment: In vitro activity test for mGluR5, HDB Fluo-8 calcium fluorescence detection (FLIPR); type: cell-based; settings: HEK293/mGluR5 cell line
Excerpt: Experimental instrument: FLIPR Tetra real-time fluorescence imaging analysis system
Experimental method: HDB Fluo-8 calcium fluorescence detection method
Experimental principle: HDB Fluo-8 calcium ion fluorescence detection method is a fast, simple and reliable fluorescence detection method of intracellular calcium concentration changes. The Fluo 8-AM fluorescent dye is an […] derivative of Fluo 8 which can easily penetrate the cell membrane into the cell by culture. The fluorescent dye into the cell will be hydrolyzed by intracellular esterase, the resulting Fluo 8 cannot easily pass through the lipid bimolecular membrane as a polar molecule, and will retain in the cell, and combine with calcium (Ca^2+) to produce fluoresces.
Cells expressing GPCR receptor protein (mGluR5) were first calibrated with a calcium ion sensitive fluorescent probe and then stimulated with the compound. After stimulation, the activation of the receptor lead to the calcium ion mobilization, and the fluorescent probe captures the calcium ion to induce the fluorescence signal. The signal can be read by a fluorescent plate reader. The fluorescent plate reader contains a sampling head for compound addition, thus enabling the change of the fluorescence value of the compound be read in real time. […]

mGluR1, sequence (Q13255 19-1194): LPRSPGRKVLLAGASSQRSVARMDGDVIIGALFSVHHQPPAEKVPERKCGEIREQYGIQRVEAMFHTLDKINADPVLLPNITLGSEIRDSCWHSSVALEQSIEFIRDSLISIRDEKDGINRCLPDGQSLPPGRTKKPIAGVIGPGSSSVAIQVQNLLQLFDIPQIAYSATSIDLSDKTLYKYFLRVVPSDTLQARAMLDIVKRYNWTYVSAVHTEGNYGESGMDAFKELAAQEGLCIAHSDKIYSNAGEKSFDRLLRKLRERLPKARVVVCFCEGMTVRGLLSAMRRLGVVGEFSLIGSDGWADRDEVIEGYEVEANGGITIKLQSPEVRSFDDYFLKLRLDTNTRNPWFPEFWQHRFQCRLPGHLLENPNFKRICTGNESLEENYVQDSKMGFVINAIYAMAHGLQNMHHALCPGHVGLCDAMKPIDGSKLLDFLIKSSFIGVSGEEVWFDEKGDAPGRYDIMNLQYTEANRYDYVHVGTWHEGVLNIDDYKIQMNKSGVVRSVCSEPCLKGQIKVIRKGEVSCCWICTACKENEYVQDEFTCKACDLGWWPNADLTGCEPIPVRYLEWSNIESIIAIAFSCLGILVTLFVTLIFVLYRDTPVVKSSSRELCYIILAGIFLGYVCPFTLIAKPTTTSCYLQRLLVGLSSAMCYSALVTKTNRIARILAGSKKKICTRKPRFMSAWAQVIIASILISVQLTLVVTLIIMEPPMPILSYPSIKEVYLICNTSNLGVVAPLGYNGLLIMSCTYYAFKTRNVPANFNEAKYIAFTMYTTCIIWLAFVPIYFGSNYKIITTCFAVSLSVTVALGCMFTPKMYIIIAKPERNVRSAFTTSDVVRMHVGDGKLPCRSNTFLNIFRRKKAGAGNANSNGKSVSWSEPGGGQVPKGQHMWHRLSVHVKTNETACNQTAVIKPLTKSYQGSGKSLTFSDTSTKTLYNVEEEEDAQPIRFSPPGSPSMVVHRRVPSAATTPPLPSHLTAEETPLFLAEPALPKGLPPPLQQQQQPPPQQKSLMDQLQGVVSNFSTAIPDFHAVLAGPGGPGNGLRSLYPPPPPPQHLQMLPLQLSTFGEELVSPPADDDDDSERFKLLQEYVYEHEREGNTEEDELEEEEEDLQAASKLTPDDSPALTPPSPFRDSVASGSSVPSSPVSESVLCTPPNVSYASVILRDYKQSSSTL
mGluR5, sequence (P41594 21-1212): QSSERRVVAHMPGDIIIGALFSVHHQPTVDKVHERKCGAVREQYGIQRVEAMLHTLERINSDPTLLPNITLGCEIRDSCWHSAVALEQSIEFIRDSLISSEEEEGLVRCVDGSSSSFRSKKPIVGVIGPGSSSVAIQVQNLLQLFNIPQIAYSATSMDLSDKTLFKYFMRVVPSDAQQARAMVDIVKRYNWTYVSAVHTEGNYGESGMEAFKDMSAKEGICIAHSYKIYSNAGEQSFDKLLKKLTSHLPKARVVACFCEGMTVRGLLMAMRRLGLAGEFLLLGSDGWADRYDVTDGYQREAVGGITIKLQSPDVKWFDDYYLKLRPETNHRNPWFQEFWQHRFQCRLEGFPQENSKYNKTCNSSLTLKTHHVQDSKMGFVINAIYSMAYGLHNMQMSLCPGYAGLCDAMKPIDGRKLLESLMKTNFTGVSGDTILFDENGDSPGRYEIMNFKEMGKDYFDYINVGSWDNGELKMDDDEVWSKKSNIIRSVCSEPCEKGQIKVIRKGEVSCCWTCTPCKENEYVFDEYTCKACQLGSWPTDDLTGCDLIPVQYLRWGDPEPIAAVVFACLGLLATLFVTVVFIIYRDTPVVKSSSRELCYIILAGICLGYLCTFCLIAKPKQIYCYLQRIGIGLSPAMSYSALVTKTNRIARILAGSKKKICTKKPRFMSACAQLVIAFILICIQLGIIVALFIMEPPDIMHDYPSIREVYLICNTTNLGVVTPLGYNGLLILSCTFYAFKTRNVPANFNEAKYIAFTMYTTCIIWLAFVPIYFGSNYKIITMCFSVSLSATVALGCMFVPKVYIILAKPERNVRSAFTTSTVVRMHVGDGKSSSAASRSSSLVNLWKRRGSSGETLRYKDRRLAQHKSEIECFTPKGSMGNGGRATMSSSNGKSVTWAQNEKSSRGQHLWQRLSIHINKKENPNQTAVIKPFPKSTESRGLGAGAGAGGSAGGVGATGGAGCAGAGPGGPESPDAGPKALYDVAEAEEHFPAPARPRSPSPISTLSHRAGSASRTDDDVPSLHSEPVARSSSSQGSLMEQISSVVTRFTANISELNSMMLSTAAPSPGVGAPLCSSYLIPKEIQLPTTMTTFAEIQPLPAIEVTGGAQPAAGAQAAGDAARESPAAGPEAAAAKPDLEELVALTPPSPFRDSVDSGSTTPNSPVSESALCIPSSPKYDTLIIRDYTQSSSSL

CNCCC(Oc1ccc(C(F)(F)F)cc1)c1ccccc1 (stereo not shown) [Fluoxetine, fluoxetine, reference compound]
immobility time in the mouse tail suspension test [1]: significantly improve | immobility time (%) Mean ± SEM [2]: 84.79 ± 12.73% | number of head twitches [3]: significantly improve

COC1CCC(C(=O)c2ccc3nc4c(cc3c2)CCCO4)CC1 (stereo not shown) [JNJ16259685, reference compound]
IC50 ([4]; positive control): 0.0912 µM

O=C(Nc1ccc(F)cc1)c1cc(C#Cc2ccccn2)ccc1F [ZD001, 2-fluoro-5-(pyridin-2-ethynyl)-N-(4-fluorophenyl)benzamide]
IC50 [5]: 0.0139 µM | IC50 [4]: > 100 µM | mGluR5/mGluR1 [4]: >7194

Cc1nc(C#Cc2ccc(F)c(C(=O)Nc3ccc(F)cc3)c2)cs1 [ZD004, 2-fluoro-N-(4-fluorophenyl)-5-((2-methyl-thiZaol-4-yl)ethynyl)benzamide]
IC50 [5]: 0.011 µM | IC50 [4]: > 100 µM | mGluR5/mGluR1 [4]: >9091

Cc1nc(C#Cc2cccc(C(=O)Nc3ccc(C#N)cc3)c2)cs1 [ZD010, N-(4-cyanophenyl)-3-((2-methylthiazol-4-yl)ethynyl)benzamide]
IC50 [5]: 0.0866 µM

Cc1nc(C#Cc2cccc(C(=O)N3CCc4ccccc4C3C)c2)cs1 (stereo not shown) [ZD011]
IC50 [5]: 0.0326 µM

Cc1nc(C#Cc2cccc(C(=O)Nc3ccccc3)c2)cs1 [ZD014]
IC50 [5]: 0.0148 µM | IC50 [4]: > 100 µM | mGluR5/mGluR1 [4]: >6757

Cc1nc(C#Cc2cccc(C(=O)Nc3cccc(F)c3)c2)cs1 [ZD017, N-(3-fluorophenyl)-3-((2-methylthiazol-4-yl)ethynyl)benzamide]
IC50 [5]: 0.133 µM

Cc1nc(C#Cc2cccc(C(=O)Nc3cccc(C#N)c3)c2)cs1 [ZD019, N-(3-cyanophenyl)-3-((2-methylthiazol-4-yl)ethynyl)benzamide]
IC50 [5]: 0.134 µM

O=C(Nc1ccc(F)cc1)c1cc(C#Cc2ccccn2)ccc1Cl [ZD036, 2-chloro-N-(4-fluorophenyl)-5-(pyridin-2-ethynyl)benzamide]
IC50 [5]: 0.0203 µM | IC50 [4]: > 100 µM | mGluR5/mGluR1 [4]: >4929

Cc1nc(C#Cc2ccc(Cl)c(C(=O)Nc3ccc(F)cc3)c2)cs1 [ZD037, 2-chloro-N-(4-fluorophenyl)-5-((2-methyl-thiazol-4-yl)ethynyl)benzamide]
IC50 [5]: 0.00731 µM | IC50 [4]: > 100 µM | mGluR5/mGluR1 [4]: >13676

O=C(Nc1ccc(F)cc1)c1cc(C#Cc2ccncc2)ccc1F [ZD039, 2-fluoro-N-(4-fluorophenyl)-5-(pyridin-4-ethynyl)benzamide]
IC50 [5]: 0.382 µM

Cc1ccc(C#Cc2ccccn2)cc1C(=O)Nc1ccc(F)cc1 [ZD040, N-(4-fluorophenyl)-2-methyl-5-(pyridin-2-ethynyl)benzamide]
IC50 [5]: 0.104 µM

Cc1nc(C#Cc2ccc(C)c(C(=O)Nc3ccc(F)cc3)c2)cs1 [ZD041, N-(4-fluorophenyl)-2-methyl-5-((2-methyl-thiazol-4-yl)ethynyl)benzamide]
IC50 [5]: 0.108 µM

O=C(Nc1cccnc1)c1cc(C#Cc2ccccn2)ccc1F [ZD042, 2-fluoro-5-(pyridin-2-ethynyl)-N-(pyridin-3-yl)benzamide]
IC50 [5]: 0.0194 µM | IC50 [4]: > 100 µM | mGluR5/mGluR1 [4]: >5155

N#Cc1ccc(NC(=O)c2cc(C#Cc3ccccn3)ccc2F)cc1 [ZD044, N-(4-cyanophenyl)-2-fluoro-5-(pyridin-2-ethynyl)benzamide]
IC50 [5]: 0.0865 µM

Cc1nc(C#Cc2ccc(F)c(C(=O)Nc3ccc(C#N)cc3)c2)cs1 [ZD045, N-(4-cyanophenyl)2-fluoro-5-((2-methyl-thiazol-4-yl)ethynyl)benzamide]
IC50 [5]: 0.0535 µM

O=C(c1cc(C#Cc2ccccn2)ccc1F)N1CCc2ccccc2C1 [ZD046, (3,4-dihydro-isoquinolin-2(1H)-yl)(2-fluoro-5-(pyridin-2-ylethynyl)phenyl) methanone]
IC50 [5]: 0.0152 µM | IC50 [4]: > 100 µM | mGluR5/mGluR1 [4]: >6601

Cc1nc(C#Cc2ccc(F)c(C(=O)N3CCc4ccccc4C3)c2)cs1 [ZD047, (3,4-dihydro-isoquinolin-2(1H)-yl)(2-fluoro-5-((2-methyl-thiazol-4-yl)ethynyl)phenyl)methanone]
IC50 [5]: 0.00665 µM | IC50 [4]: > 100 µM | mGluR5/mGluR1 [4]: >15044

CC1c2ccccc2CCN1C(=O)c1cc(C#Cc2ccccn2)ccc1F (stereo not shown) [ZD048, (2-fluoro-5-(pyridin-2-ylethynyl)phenyl) (1-methyl-3,4-dihydro-isoquinolin-2(1H)-yl)methanone]
IC50 [5]: 0.0713 µM

Cc1nc(C#Cc2ccc(F)c(C(=O)N3CCc4ccccc4C3C)c2)cs1 (stereo not shown) [ZD049, (2-fluoro-5-((2-methyl-thiazol-4-yl)ethynyl)phenyl)(1-methyl-3,4-dihydro-isoquinolin-2(1H)-yl)methanone]
IC50 [5]: 0.038 µM | IC50 [4]: > 100 µM | mGluR5/mGluR1 [4]: >2632

CN(C)CCC=C1c2ccccc2CCc2ccccc21 [amitriptyline, reference compound]
immobility time (%) Mean ± SEM [2]: significantly improve | immobility time (%) Mean ± SEM ([2]; listed as CCAmitriptyline): 15.34 ± 5.96 %
